Reference: patent US20080312167A1, “4'' Amino Linked Macrolides Useful for the Treatment of Microbial Infections” (priority 2005, published 2008)

What was measured:
Assay in all cases: MIC, standard broth dilution method in microtitre
Type in all cases: cell-based
[1] = tested on: Moraxella catarrhalis
Description: (§1) Using a standard broth dilution method in microtitre, compounds were tested for antibacterial activity.
(§2) The MIC (μg/ml) of test compounds against various organisms was determined including: Staphylococcus aureus, Streptococcus pneumoniae, Streptococcus pyogenes, Enterococcus faecalis, Haemophylus influenzae, Moraxella catarrhalis.

[2] = tested on: sensitive Staphylococcus aureus
Description: as §1, §2

[3] = tested on: Enterococcus faecalis
Description: as §1, §2

[4] = tested on: Haemophylus influenzae
Description: as §1, §2

| Compound | MIC [1] [µg/mL] | MIC [2] [µg/mL] | MIC [3] [µg/mL] | MIC [4] [µg/mL] |
| --- | --- | --- | --- | --- |
| CC[C@H]1OC(=O)[C@H](C)[C@@H](O[C@H]2C[C@@](C)(OC)[C@H](NC(=O)CCOCCOCCCc3ccc4c(c3)c(=O)c(C(=O)O)cn4C3CC3)[C@H](C)O2)[C@H](C)[C@@H](O[C@@H]2O[C@H](C)C[C@H](N(C)C)[C@H]2O)[C@](C)(O)C[C@@H](C)CN(C)[C@H](C)[C@@H](O)[C@]1(C)O (single isomer, unassigned) [Example 9] | ≤ 2 | ≤ 0.5 |  |  |
| CC[C@H]1OC(=O)[C@H](C)[C@@H](O[C@H]2C[C@@](C)(OC)[C@@H](NC(=O)CCOCCOCCCc3ccc4c(c3)c(=O)c(C(=O)O)cn4CC)[C@H](C)O2)[C@H](C)[C@@H](O[C@@H]2O[C@H](C)C[C@H](N(C)C)[C@H]2O)[C@](C)(O)C[C@@H](C)CN(C)[C@H](C)[C@@H](O)[C@]1(C)O (single isomer, unassigned) [Example 7] | ≤ 2 | ≤ 0.5 | ≤ 0.125 |  |
| CC[C@H]1OC(=O)[C@H](C)[C@@H](O[C@H]2C[C@@](C)(OC)[C@H](NC(=O)CCOCCOCCCc3ccc4c(c3)c(=O)c(C(=O)O)cn4CCOC)[C@H](C)O2)[C@H](C)[C@@H](O[C@@H]2O[C@H](C)C[C@H](N(C)C)[C@H]2O)[C@](C)(O)C[C@@H](C)CN(C)[C@H](C)[C@@H](O)[C@]1(C)O (single isomer, unassigned) [Example 6] | ≤ 2 | ≤ 0.5 |  |  |
| CC[C@H]1OC(=O)[C@H](C)[C@@H](O[C@H]2C[C@@](C)(OC)[C@H](NC(=O)CCOCCOCCCc3ccc4c(c3)c(=O)c(C(=O)O)cn4CC)[C@H](C)O2)[C@H](C)[C@@H](O[C@@H]2O[C@H](C)C[C@H](N(C)C)[C@H]2O)[C@](C)(O)C[C@@H](C)CN(C)[C@H](C)[C@@H](O)[C@]1(C)O (single isomer, unassigned) [Example 4] | ≤ 2 |  |  |  |
| CC[C@H]1OC(=O)[C@H](C)[C@@H](O[C@H]2C[C@@](C)(OC)[C@@H](NC(=O)CCOCCOCCCc3ccc4c(c3)c(=O)c(C(=O)O)cn4C3CC3)[C@H](C)O2)[C@H](C)[C@@H](O[C@@H]2O[C@H](C)C[C@H](N(C)C)[C@H]2O)[C@](C)(O)C[C@@H](C)CN(C)[C@H](C)[C@@H](O)[C@]1(C)O (single isomer, unassigned) [Example 8] | ≤ 2 | ≤ 0.5 | ≤ 0.125 |  |
| 4″(S)—N-(3-{2-[2-(3-Carboxy-7-chloro-1-cyclopropyl-4-oxo-1,4-dihydro-quinolin-6-ylamino)-ethoxy]-ethoxy}-propionyl}-azithromycin [Example 3] |  |  |  | ≤ 0.125 |
